One series can be described thus: Pilot rat dermal study. Format: in vivo. To be noted: 1% lotion, ointment, gel, DMSO; TID 7 days, 10 mg/cm^2 on about 6 cm^2. On the procedure:
The safety and tolerability of prototypical dermal formulations (1% lotion, ointment, and gel) were assessed on rats given TID for seven consecutive days—approximately 6 cm^2 with 10 mg/cm^2.

The subject of another series is rats. Nature of the series: CNS effects in rats, single bolus IV injection. In kind it is in vivo, rat. The text has this:
No effect on any other parameters was observed.

A further series in a line: Solubility studies. Format: physicochemical.
Series [1] in a line: 13-week IV toxicity study in rats with 4-week recovery (with plasma exposure). The following applies: rat; for AUC: AUC0-n.
The mark [2] stands for this setting: 3 mg/kg, 3 mg/kg daily IV bolus, Day 1.
Setting [3] is: 3 mg/kg, 3 mg/kg daily IV bolus, Week 13.
Setting [4] is: 10 mg/kg, 10 mg/kg daily IV bolus, Day 1.
Where [5] appears, read: 10 mg/kg, 10 mg/kg daily IV bolus, Week 13.
Setting [6] is: 30 mg/kg, 30 mg/kg daily IV bolus, Day 1.
Where [7] appears, read: 30 mg/kg, 30 mg/kg daily IV bolus, Week 13.

For `CS(=O)(=O)c1cccc(C[C@H](NC(=O)c2c(Cl)cc3c(c2Cl)CCN(C(=O)c2ccc4ccoc4c2)C3)C(=O)O)c1` [Compound 12], in “Pilot rat dermal study”, the “serum level after dermal dosing” value was “detectable in serum”. Further, the CNS observation entry in the series on rats (10.0 mg/kg IV, 1 minute to 6 hours postdose in 2/6 animals at each time point) is recorded as “Transient miosis”. The “effect on any other CNS parameters” value in the series with rats (single bolus IV) is “No effect”. For the same compound, the values for the solubility in “Solubility studies” (ethanol/glycol/transcutol solution) and in “Solubility studies” (water/glycol/transcutol solution) were 10 % (w/w) and 2 % (w/w), respectively. Also, the AUC in series [1] (setting [2]) stood at 148 ng·h/mL; in series [1] (setting [3]), 241 ng·h/mL; in series [1] (setting [4]), 536 ng·h/mL; in series [1] (setting [5]), 907 ng·h/mL; in series [1] (setting [6]) it was 2350 ng·h/mL; in series [1] (setting [7]), 7470 ng·h/mL. Moreover, the Cmax in series [1] (setting [2]) was determined as 305 ng/mL; in series [1] (setting [3]) it was 378 ng/mL; in series [1] (setting [4]), 1050 ng/mL; in series [1] (setting [5]), 1690 ng/mL; in series [1] (setting [6]), 5120 ng/mL; in series [1] (setting [7]) it was 16900 ng/mL.

The record behind these values is patent US20090258069A1, “Delivery of LFA-1 antagonists to the gastrointestinal system” (priority 2008, published 2009).
